Source: patent publication US20240099295A1, “CELL TREATMENT AGENT” (AYA Inc., priority 2021, published 2024)

Assays:
Format in all cases: cell-based
[1] = tested on: human amnion-derived mesenchymal stem cells; assay: Differentiation state maintenance: marker positive rate by flow cytometry; details: DS 0.1 mg/mL in serum-free cell culture solution, 5 days of culture
Method: Using dextran sulfate (DS) as an active ingredient of the cell treatment agent, the cell dormancy effect by DS was considered according to the effect of preventing differentiation by maintaining the cells in an undifferentiated state, as an index. As the cells, human amnion-derived mesenchymal stem cells in an undifferentiated state were used. Using a normal serum-free cell culture solution as a conditioning solution, a cell preservation solution a was prepared by adding DS to the conditioning solution at 0.1 mg/ml, and a cell preservation solution b was prepared by adding FBS to the conditioning solution at 10%. To each of the cell preservation solutions a and b, the aforementioned stem cells were added at 10^5 cells/ml, respectively, and then cultured for 5 days under normal cell culture conditions (37° C., CO2 concentration of 5%, humidity of 100%). The degrees of differentiation of stem cells before culture and after 5 days of culture were evaluated and compared by flow cytometry. The method followed the method described in Masoumeh Fakhr Taha, Vahideh Hedayati “Isolation, identification and multipotential differentiation of mouse adipose tissue-derived stem cells” Tissue and Cell 42 (2010) 211-216. The evaluation was made according to CD29 and CD44 as undifferentiation markers and CD11b, CD31, and CD45 as markers of differentiation into mesenchymal cells.

[2] = tested on: Chinese hamster fibroblasts; assay: Cell detaching and suspending effect (Experimental Example 4); details: same experiment as Table 13 with Chinese hamster fibroblasts
[3] = tested on: rat corneal epithelial cells; assay: as above
Method: A culture solution in which FBS was added to a normal serum-free cell culture solution in a concentration of 10% (10% FBS cell culture solution) was prepared in a culture dish. To this, rat corneal epithelial cells were added at 10^6 cells/ml and cultured for 24 hours under normal cell culture conditions (37° C., CO2 concentration of 5%, humidity of 100%) to make the cultured cells fully adhere to the culture dish wall which is a scaffold.
The culture solution in the culture dish on which cultured cells obtained as described above had adhered was replaced with each of dextran sulfate aqueous solutions and a dextran aqueous solution, which are respectively obtained by dissolving dextran sulfate (Dextran sodium sulfate MW 36000-50000, available from FUJIFILM Wako Pure Chemical Corporation) and dextran (Dextran MW 35000-50000, available from FUJIFILM Wako Pure Chemical Corporation) in purified water and have concentrations shown in Table 13, and the resultant culture solutions were continuously cultured under normal cell culture conditions (37° C., CO2 concentration of 5%, humidity of 100%). For each adherent cell, detachment and suspension of adherent cells from the dish wall was observed over time. For determination of detachment and suspension, the culture dish was gently shaken manually to observe whether the cells were detached from the dish wall and suspended, and the case where 90% or more of the cells were detached and suspended was determined as detachment and suspension of adherent cells. The results are of N=4. In Table 13, “∘” means that the cells were detached and suspended, and “x” means that the cells were not detached and suspended.

[4] = tested on: Rat corneal epithelial cell; assay: Cell dormancy effect: cell cycle analysis by flow cytometry; details: serum-free cell culture solution, cultured 48 hours at 37° C.
Method: Sodium alginate (sodium alginate first grade reagent, available from FUJIFILM Wako Pure Chemical Corporation, viscosity of 1% aqueous solution is 120 mPa·s at 20° C.), DS (the same as in Experimental Example 1), or sodium heparin (the same as in Experimental Example 1) was used as an active ingredient in the cell treatment agent, and whether cell dormancy occurs or not by action of the active ingredient was examined by comparing the activities of cell division and proliferation which are the most general cell activities in the following manner.
The cell cycle was analyzed by flow cytometry according to the method described in known literature (Piotr Pozarowski and Zbigniew Darzynkiewicz, “Analysis of Cell Cycle by Flow Cytometry,” Methods in Molecular Biology, vol. 281: Checkpoint Controls and Cancer, Volume 2), and frequency of cell division and proliferation was compared between different active ingredients of the cell treatment agent. A specific method is as follows. Using a normal serum-free cell culture solution as a conditioning solution (comparison reference (a)), (b) a cell preservation solution in which sodium alginate (Na alginate) is added to the conditioning solution in a concentration of 2.5 mg/ml, (c) a cell preservation solution in which DS is added to the conditioning solution in a concentration of 0.1 mg/ml, and (d) a cell preservation solution in which heparin sodium (heparin Na) is added to the conditioning solution in a concentration of 50 units/ml, were prepared. To these cell preservation solutions, rat corneal epithelial cells were added at a cell concentration of 10^5 cells/ml and cultured for 48 hours under normal cell culture conditions (37° C., CO2 concentration of 5%, humidity of 100%). The number of cells in each culture was determined by cell cycle analysis using flow cytometry to determine the number of cells in each cell cycle, and the percentage of cells in the S phase, G2 phase, and M phase, which are considered as the periods of the cell division and proliferation process, was compared with the percentage of cells in the G0 phase and G1 phase, which are considered as other periods. The results are of N=4.

| Substance | Positive rate of marker CD11b after culture ([1]; differentiation marker) | Positive rate of marker CD31 after culture ([1]; differentiation marker) | Positive rate of marker CD45 after culture ([1]; differentiation marker) | Positive rate of marker CD29 after culture ([1]; undifferentiation marker) | Positive rate of marker CD44 after culture ([1]; undifferentiation marker) | Detachment and suspension of adherent cells [2] | Detachment and suspension of adherent cells by lapse time after replacement (hour) ([3]; DS 0.1 mg/mL aqueous solution (MW 36000-50000), later lapse times up to 48 h, span not shown) | Detachment and suspension of adherent cells by lapse time after replacement (hour) ([3]; DS 0.1 mg/mL aqueous solution (MW 36000-50000), starts at <12 h) | Detachment and suspension of adherent cells by lapse time after replacement (hour) ([3]; DS 1 mg/mL aqueous solution (MW 36000-50000), later lapse times up to 48 h, span not shown) | Detachment and suspension of adherent cells by lapse time after replacement (hour) ([3]; DS 1 mg/mL aqueous solution (MW 36000-50000), starts at <12 h) | Detachment and suspension of adherent cells by lapse time after replacement (hour) ([3]; DS 10 mg/mL aqueous solution (MW 36000-50000), later lapse times up to 48 h, span not shown) | Detachment and suspension of adherent cells by lapse time after replacement (hour) ([3]; DS 10 mg/mL aqueous solution (MW 36000-50000), starts at <12 h) | Percentages of cells of each cell cycle: G0 phase + G1 phase ([4]; DS 0.1 mg/mL) | Percentages of cells of each cell cycle: S phase + G2 phase + M phase ([4]; DS 0.1 mg/mL) | Percentages of cells of each cell cycle: G0 phase + G1 phase ([4]; Heparin Na 50 units/mL) | Percentages of cells of each cell cycle: S phase + G2 phase + M phase ([4]; Heparin Na 50 units/mL) |
| --- | --- | --- | --- | --- | --- | --- | --- | --- | --- | --- | --- | --- | --- | --- | --- | --- |
| dextran sulfate [DS] | 19.8% | 8.3% | 7.3% | 98.7% | 62.3% | equivalent results were obtained | ∘ (“∘” means that the cells were detached and suspended) | x (“x” means that the cells were not detached and suspended) | ∘ (“∘” means that the cells were detached and suspended) | x (“x” means that the cells were not detached and suspended) | ∘ (“∘” means that the cells were detached and suspended) | x (“x” means that the cells were not detached and suspended) | 92.4% | 5.77% | – | – |
| heparin sodium [Heparin Na, reference compound] | – | – | – | – | – | – | – | – | – | – | – | – | – | – | 89.7% | 7.68% |
